# Like-named read-outs stand apart in the source and are kept apart here.
# Columns and labels:
# TICs (Ovarian 2393A) = assay: Ovarian tumor-initiating cell growth inhibition (Alamar Blue); type: cell-based; details: 6 days, read-out: Tumor Initiating Cell GI50 Range Ovarain 2393A
# Excerpt: (§1) Materials and Methods: Non-tissue or tissue cultured treated T-75 flask and 96-well plates were purchased from VWR. Vitamin B-27 supplement, MEM NEAA (minimum essential medium non essential amino acids), sodium pyruvate, L-glutamine, N2 supplement, penicillin-streptomycin and fungizone/amphotericin B were obtained from Invitrogen. Lipid mixture, heparin and EGF were purchased from Sigma; bFGF from BD Biosciences. Tumor Initiating Cells (TICs) from colon were routinely maintained using non-tissue cultured treated T-75 flasks in DMEM:F12 medium containing 0.2×B-27 supplement, 4 ug/ml heparin, 1×MEM NEAA, 1× sodium pyruvate, 1 mM glutamine, 10 pg/ul bFGF, 20 pg/ul EGF, 1×N2 supplement, lipid mixture, penicillin-streptomycin and fungizone/amphotericin B. Ovarian TICs were routinely maintained using tissue cultured treated T-75 flasks in DMEM:F12 medium containing 1×B-27 supplement, 4 ug/ml heparin, 20 pg/ul bFGF, 20 pg/ul EGF and penicillin-streptomycin.
# (§2) Assay Protocol: Compounds described herein were dissolved in DMSO and further diluted in cell culture medium for GI50 determination. Colon TICs were trypsinized and seeded into non-tissue cultured treated 96-well plates with 4,000 cells/well. After 24 h, compound was added into the cell culture at different concentrations, and the final concentration of DMSO was adjusted to 0.1%. Cells were then cultured at 37° C. for 9 days. Ovarian TICs were trypsinized and seeded into tissue cultured treated 96-well plates with 1,000 cells/well. After 24 h, compound was added into the cell culture at different concentrations, and the final concentration of DMSO was adjusted to 0.1%. Cells were then cultured at 37° C. for 6 days. Cell viability was assessed by Alamar Blue assay: 10 ul of Alamar Blue was added into each well. After 4 hours incubation at 37° C., fluorescence was recorded at excitation 544 and emission 590. GI50 (Growth inhibition) was calculated using GraphPad Prism 4.0 software.
# human TTK = molecular target: T1, human TTK (Homo sapiens, UniProt P33981); assay: TTK inhibition assay (indirect ELISA); type: biochemical
# T1 construct: amino terminal GST fusion of full length human TTK; purchased Invitrogen
# T1 sequence (P33981 1-857): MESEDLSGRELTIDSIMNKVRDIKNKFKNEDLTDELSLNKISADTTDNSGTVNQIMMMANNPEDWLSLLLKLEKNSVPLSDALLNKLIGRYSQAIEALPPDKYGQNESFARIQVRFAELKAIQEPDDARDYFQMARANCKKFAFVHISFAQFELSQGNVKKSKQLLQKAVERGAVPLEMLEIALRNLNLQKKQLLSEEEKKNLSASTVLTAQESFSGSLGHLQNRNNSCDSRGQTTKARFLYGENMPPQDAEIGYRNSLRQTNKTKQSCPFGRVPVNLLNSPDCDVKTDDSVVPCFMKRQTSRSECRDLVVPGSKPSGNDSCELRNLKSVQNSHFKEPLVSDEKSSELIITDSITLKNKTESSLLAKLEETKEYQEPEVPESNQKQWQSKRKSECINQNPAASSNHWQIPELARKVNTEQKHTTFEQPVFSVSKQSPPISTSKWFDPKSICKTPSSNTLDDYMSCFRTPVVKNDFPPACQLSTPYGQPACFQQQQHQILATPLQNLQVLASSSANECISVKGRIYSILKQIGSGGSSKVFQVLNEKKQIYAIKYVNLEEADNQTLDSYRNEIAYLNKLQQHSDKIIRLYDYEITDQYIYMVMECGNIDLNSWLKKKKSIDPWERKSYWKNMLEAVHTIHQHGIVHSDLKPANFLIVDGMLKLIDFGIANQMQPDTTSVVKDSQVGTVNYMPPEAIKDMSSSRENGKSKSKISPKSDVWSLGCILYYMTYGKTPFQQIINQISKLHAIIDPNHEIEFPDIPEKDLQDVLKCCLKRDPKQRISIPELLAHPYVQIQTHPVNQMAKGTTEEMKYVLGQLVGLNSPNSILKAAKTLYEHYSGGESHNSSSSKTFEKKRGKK
# Description: Active TTK was purchased from Invitrogen as an amino terminal GST fusion of full length human TTK. Amino terminal 6 histidine, sumo tagged human TTK (residues 1-275) was expressed in E. coli, and purified to >95% homogeneity by Ni^2+ agarose, gel filtration, and ion exchange chromatography.
# TTK activity was measured using an indirect ELISA detection system. GST-TTK (0.68 nM) was incubated in the presence of 16 μM ATP (Sigma cat# A7699), 50 mM Hepes pH 7.2, 1 mM EGTA, 10 mM MgCl2, and 0.1% Pluronic in a 96 well microtitre plate pre-coated with amino terminal 6 histidine, sumo tagged TTK (amino acid residues 1-275). The reaction was allowed to proceed for 30 minutes, followed by 5 washes of the plate with Wash Buffer (phosphate buffered saline supplemented with 0.2% Tween 20), and incubation for 30 minutes with a 1:3000 dilution of primary antibody (Cell Signaling cat# 9381). The plate was washed 5 times with Wash Buffer, incubated for 30 minutes in the presence of secondary antibody coupled to horse radish peroxidase (BioRad cat# 1721019, 1:3000 concentration), washed an additional 5 times with Wash Buffer, and incubated in the presence of TMB substrate (Sigma cat# T0440). The colourimetric reaction was allowed to continue for 5 minutes, followed by addition of stop solution (0.5 N sulphuric acid), and quantified by detection at 450 nm with either a monochromatic or filter based plate reader (Molecular Devices M5 or Beckman DTX880, respectively).
# Compounds were pre-incubated in the presence of enzyme for 5 minutes prior to addition of ATP and the activity remaining quantified using the above described activity assay. The % Inhibition of a compound was determined using the following formula: % Inhibition=100×(1−(experimental value−background value)/(high activity control−background value)). The IC50 value was determined using a non-linear 4 point logistic curve fit (XLfit4, IDBS) with the formula: (A+(B/(1+((x/C)^D)))), where A=background value, B=range, C=inflection point, D=curve fit parameter.
# [1] = test system: ovarian cancer cells (PA-1); assay: Cancer cell line growth inhibition (SRB assay); type: cell-based; details: read-out: Cancer Cell Line GI50 Range PA-1
# [2] = test system: colon cancer cells (HCT116); assay: Cancer cell line growth inhibition (SRB assay); type: cell-based; details: read-out: Cancer Cell Line GI50 Range HCT116
# TICs (Colon 12) = assay: Colon tumor-initiating cell growth inhibition (Alamar Blue); type: cell-based; details: 9 days, read-out: Tumor Initiating Cell GI50 Range Colon 12
# Excerpt: as §1, §2
# Breast cancer cells = assay: Cancer cell line growth inhibition (SRB assay); type: cell-based; details: Homo sapiens; MDA-MB-468; read-out: Cancer Cell Line GI50 Range MDA-MB-468
# [3] = 144 h, ovarian TICs, Alamar Blue
# [4] = PA-1 ovarian cancer cells, SRB assay
# [5] = Homo sapiens, HCT-116, HCT116 colon cancer cells, SRB assay
Compound,"GI50 (TICs (Ovarian 2393A); 144 h, Ovarian 2393A TICs)",IC50 (human TTK; read-out: TTK IC50 Range),"GI50 ([1]; Homo sapiens, PA-1)","GI50 ([2]; Homo sapiens, HCT-116)","GI50 (TICs (Colon 12); 216 h, Colon 12 TICs)",also measured
"CC(C)C[C@H](NC(=O)c1ccc2[nH]nc(-c3ccc(N4CC(N5CCOCC5)C4)cc3)c2c1)c1ccccc1Cl [Example A315, (S)-N-(1-(2-chlorophenyl)-3-methylbutyl)-3-(4-(3-morpholinoazetidin-1-yl)phenyl)-1H-indazole-5-carboxamide]",0.1 to 0.5 µM,< 0.1 µM,< 0.1 µM,< 0.1 µM,< 0.1 µM,GI50 (Breast cancer cells): 0.1 to 0.5 µM
"O=C(NC(c1ccccc1)C1CC1)c1ccc2[nH]nc(-c3ccc(O[C@H]4C[C@H]5CC[C@@H](C4)N5C4COC4)cc3)c2c1 (stereo partly drawn) [Example A321, N-(cyclopropyl(phenyl)methyl)-3-(4-(((1R,3R,5S)-8-(oxetan-3-yl)-8-azabicyclo[3.2.1]octan-3-yl)oxy)phenyl)-1H-indazole-5-carboxamide]",0.1 to 0.5 µM,< 0.1 µM,0.1 to 0.5 µM,0.1 to 0.5 µM,< 0.1 µM,GI50 (Breast cancer cells): 0.1 to 0.5 µM
"C[C@@H](O)CN1CCC(Oc2ccc(-c3n[nH]c4ccc(C(=O)N[C@H](c5ccccn5)C5CC5)cc34)cc2)CC1 [Example A221, N-((S)-cyclopropyl(pyridin-2-yl)methyl)-3-(4-((1-((R)-2-hydroxypropyl)piperidin-4-yl)oxy)phenyl)-1H-indazole-5-carboxamide]",0.1 to 0.5 µM,< 0.1 µM,< 0.1 µM,< 0.1 µM,0.1 to 0.5 µM,–
"CN1CC[C@@H](Oc2ccc(-c3n[nH]c4ccc(C(=O)NCC5(N6CCOCC6)CCCCC5)cc34)cc2)[C@@H](F)C1 [Example A455, 3-(4-(((3S,4R)-3-fluoro-1-methylpiperidin-4-yl)oxy)phenyl)-N-((1-morpholinocyclohexyl)methyl)-1H-indazole-5-carboxamide]",–,< 0.1 µM,–,–,–,"GI50 (TICs (Ovarian 2393A); [3]): 0.1 to 0.5 µM; GI50 [1, 4]: < 0.1 µM; GI50 [2, 5]: < 0.1 µM; GI50 (TICs (Colon 12); 216 h, colon TICs, Alamar Blue): 0.1 to 0.5 µM"
"CC(C)[C@H](NC(=O)c1ccc2[nH]nc(-c3ccc(OC4CCN(C5COC5)CC4)cc3)c2c1)c1ccccc1Cl [Example A332, (S)-N-(1-(2-chlorophenyl)-2-methylpropyl)-3-(4-((1-(oxetan-3-yl)piperidin-4-yl)oxy)phenyl)-1H-indazole-5-carboxamide]",< 0.1 µM,< 0.1 µM,< 0.1 µM,< 0.1 µM,< 0.1 µM,–
"O=C(N[C@H](c1ccccn1)C1CC1)c1ccc2[nH]nc(-c3ccc(N4C5CCC4CC(O)C5)cc3)c2c1 (stereo partly drawn) [Example A307, N-((S)-cyclopropyl(pyridin-2-yl)methyl)-3-(4-((1R,3R,5S)-3-hydroxy-8-azabicyclo[3.2.1]octan-8-yl)phenyl)-1H-indazole-5-carboxamide]",–,< 0.1 µM,–,–,–,GI50 (TICs (Ovarian 2393A); Ovarian 2393A TICs): 0.1 to 0.5 µM; GI50 ([1]; PA-1): < 0.1 µM; GI50 ([2]; HCT116): < 0.1 µM; GI50 (TICs (Colon 12); Colon 12 TICs): 0.1 to 0.5 µM
"O=CN1C2CCC1CC(Oc1ccc(-c3n[nH]c4ccc(C(=O)N[C@H](c5ccccc5Cl)C5CC5)cc34)cc1)C2 (stereo partly drawn) [Example A350, N-((S)-(2-chlorophenyl)(cyclopropyl)methyl)-3-(4-(((1R,3R,5S)-8-formyl-8-azabicyclo[3.2.1]octan-3-yl)oxy)phenyl)-1H-indazole-5-carboxamide]",< 0.1 µM,< 0.1 µM,< 0.1 µM,< 0.1 µM,< 0.1 µM,–
"O=C(N[C@H](c1ccccn1)C1CCCC1)c1ccc2[nH]nc(-c3ccc(N4[C@@H]5CCC[C@H]4COC5)cc3)c2c1 [Example A418, 3-(4-((1R,5S)-3-oxa-9-azabicyclo[3.3.1]nonan-9-yl)phenyl)-N-((S)-cyclopentyl(pyridin-2-yl)methyl)-1H-indazole-5-carboxamide]",< 0.1 µM,–,< 0.1 µM,< 0.1 µM,< 0.1 µM,IC50 (human TTK): < 0.1 µM
"O=C(N[C@H](c1ccccc1Cl)C1CC1)c1ccc2[nH]nc(-c3ccc(OC4CC5CCC(C4)N5C4COC4)cc3)c2c1 (stereo partly drawn) [Example A349, N-((S)-(2-chlorophenyl)(cyclopropyl)methyl)-3-(4-(((1R,3R,5S)-8-(oxetan-3-yl)-8-azabicyclo[3.2.1]octan-3-yl)oxy)phenyl)-1H-indazole-5-carboxamide]",< 0.1 µM,< 0.1 µM,< 0.1 µM,< 0.1 µM,< 0.1 µM,–
"O=CN1C2CCC1CC(Oc1ccc(-c3n[nH]c4ccc(C(=O)N[C@H](c5ccccn5)C5CC5)cc34)cc1)C2 (stereo partly drawn) [Example A322, N-((S)-cyclopropyl(pyridin-2-yl)methyl)-3-(4-(((1R,3R,5S)-8-formyl-8-azabicyclo[3.2.1]octan-3-yl)oxy)phenyl)-1H-indazole-5-carboxamide]",< 0.1 µM,< 0.1 µM,< 0.1 µM,< 0.1 µM,< 0.1 µM,–
"O=C(NCC1(N2CCOCC2)CCCCC1)c1ccc2[nH]nc(-c3ccc(N4CCN(C5COC5)CC4)cc3)c2c1 [Example A500, N-((1-morpholinocyclohexyl)methyl)-3-(4-(4-(oxetan-3-yl)piperazin-1-yl)phenyl)-1H-indazole-5-carboxamide]",< 0.1 µM,< 0.1 µM,< 0.1 µM,< 0.1 µM,< 0.1 µM,–
"O=CN1CCC(Oc2ccc(-c3n[nH]c4ccc(C(=O)NCC5(N6CCOCC6)CCCCC5)cc34)cc2)CC1 [Example A504, 3-(4-((1-formylpiperidin-4-yl)oxy)phenyl)-N-((1-morpholinocyclohexyl)methyl)-1H-indazole-5-carboxamide]",–,< 0.1 µM,–,–,–,"GI50 (TICs (Ovarian 2393A); [3]): 0.1 to 0.5 µM; GI50 [1, 4]: 0.1 to 0.5 µM; GI50 [2, 5]: < 0.1 µM; GI50 (TICs (Colon 12); 216 h, colon TICs, Alamar Blue): 0.1 to 0.5 µM"
"CC(C)C[C@@H](NC(=O)c1ccc2[nH]nc(-c3ccc(N4C5CCC4CC(O)C5)cc3)c2c1)c1ccccn1 (stereo partly drawn) [Example A305, 3-(4-((1R,3R,5S)-3-hydroxy-8-azabicyclo[3.2.1]octan-8-yl)phenyl)-N-((R)-3-methyl-1-(pyridin-2-yl)butyl)-1H-indazole-5-carboxamide]",< 0.1 µM,–,< 0.1 µM,< 0.1 µM,< 0.1 µM,IC50 (human TTK): < 0.1 µM
"O=C(N[C@H](c1ccccn1)C1CC1)c1ccc2[nH]nc(-c3ccc(OC4CC5CCC(C4)N5C4COC4)cc3)c2c1 (stereo partly drawn) [Example A320, N-((S)-cyclopropyl(pyridin-2-yl)methyl)-3-(4-(((1R,3R,5S)-8-(oxetan-3-yl)-8-azabicyclo[3.2.1]octan-3-yl)oxy)phenyl)-1H-indazole-5-carboxamide]",0.1 to 0.5 µM,< 0.1 µM,< 0.1 µM,< 0.1 µM,< 0.1 µM,–
"O=C(NCC1(N2CCOCC2)CCCCC1)c1ccc2[nH]nc(-c3ccc(N4CCOCC4)cc3)c2c1 [Example A447, N-((1-morpholinocyclohexyl)methyl)-3-(4-morpholinophenyl)-1H-indazole-5-carboxamide]",–,< 0.1 µM,–,–,–,"GI50 (TICs (Ovarian 2393A); [3]): < 0.1 µM; GI50 [1, 4]: < 0.1 µM; GI50 [2, 5]: < 0.1 µM; GI50 (TICs (Colon 12); 216 h, colon TICs, Alamar Blue): < 0.1 µM"

# From patent publication US9580390B2, “Indazole compounds as kinase inhibitors and method of treating cancer with same” (University Health Network, priority 2011, dated 2017)
